How the values were obtained:
Experiment in all cases: Competitive isoTOP-ABPP in situ (fragment-treated cells)
Type in all cases: cell-based
[1] = molecular target: cysteines in MDA-MB-231 and Ramos cells (Homo sapiens, UniProt Q8TAQ2)
[2] = molecular target: T1, cysteines in MDA-MB-231 and Ramos cells (Homo sapiens, UniProt Q96AB3)
T1 sequence (Q96AB3 1-205): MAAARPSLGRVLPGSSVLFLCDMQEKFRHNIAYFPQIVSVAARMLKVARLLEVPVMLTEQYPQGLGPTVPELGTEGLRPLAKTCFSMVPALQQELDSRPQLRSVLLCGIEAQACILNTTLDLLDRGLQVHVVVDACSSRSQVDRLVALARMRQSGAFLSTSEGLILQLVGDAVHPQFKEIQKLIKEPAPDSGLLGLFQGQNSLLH

[3] = molecular target: T2, cysteines in MDA-MB-231 and Ramos cells (Homo sapiens, UniProt Q96RN5)
T2 sequence (Q96RN5 1-788): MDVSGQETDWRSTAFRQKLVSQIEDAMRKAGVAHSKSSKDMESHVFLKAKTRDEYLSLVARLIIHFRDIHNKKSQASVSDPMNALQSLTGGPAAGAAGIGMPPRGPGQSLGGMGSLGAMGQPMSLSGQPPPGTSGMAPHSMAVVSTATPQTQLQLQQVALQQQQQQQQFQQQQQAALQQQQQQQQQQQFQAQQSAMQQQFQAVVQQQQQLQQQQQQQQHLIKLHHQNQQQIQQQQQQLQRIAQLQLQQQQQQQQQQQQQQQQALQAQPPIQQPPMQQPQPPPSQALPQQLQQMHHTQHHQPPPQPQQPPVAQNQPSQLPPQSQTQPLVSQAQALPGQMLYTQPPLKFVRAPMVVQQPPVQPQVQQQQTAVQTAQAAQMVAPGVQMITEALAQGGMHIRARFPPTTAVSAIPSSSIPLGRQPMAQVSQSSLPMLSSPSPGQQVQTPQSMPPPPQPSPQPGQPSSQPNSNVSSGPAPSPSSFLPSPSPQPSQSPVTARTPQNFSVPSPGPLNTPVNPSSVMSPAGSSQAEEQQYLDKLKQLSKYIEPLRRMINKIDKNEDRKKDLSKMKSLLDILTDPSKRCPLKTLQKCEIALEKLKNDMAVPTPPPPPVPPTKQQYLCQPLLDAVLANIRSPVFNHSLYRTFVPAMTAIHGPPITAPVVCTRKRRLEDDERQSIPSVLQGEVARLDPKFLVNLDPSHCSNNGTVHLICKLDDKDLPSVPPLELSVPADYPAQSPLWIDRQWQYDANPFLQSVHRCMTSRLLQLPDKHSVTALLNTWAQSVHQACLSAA

[4] = molecular target: cysteines in MDA-MB-231 and Ramos cells (Homo sapiens, UniProt Q9ULV4)
cysteines in MDA-MB-231 and Ramos cells (Homo sapiens, UniProt Q9ULV4), sequence (Q9ULV4 whole entry): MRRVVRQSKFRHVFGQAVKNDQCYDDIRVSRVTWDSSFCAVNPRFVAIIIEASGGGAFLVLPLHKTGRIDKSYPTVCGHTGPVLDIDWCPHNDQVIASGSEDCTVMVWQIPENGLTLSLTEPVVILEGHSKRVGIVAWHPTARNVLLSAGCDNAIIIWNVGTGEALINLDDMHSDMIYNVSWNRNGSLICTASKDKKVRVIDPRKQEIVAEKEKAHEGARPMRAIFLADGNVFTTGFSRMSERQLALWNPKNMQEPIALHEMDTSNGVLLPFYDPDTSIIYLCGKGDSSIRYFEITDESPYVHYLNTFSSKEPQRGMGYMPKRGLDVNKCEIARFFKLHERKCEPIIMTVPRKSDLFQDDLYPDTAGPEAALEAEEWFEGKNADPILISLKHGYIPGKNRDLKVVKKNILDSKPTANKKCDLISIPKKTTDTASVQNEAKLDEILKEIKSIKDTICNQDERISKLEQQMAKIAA

[5] = molecular target: T3, cysteines in MDA-MB-231 and Ramos cells (Homo sapiens, UniProt Q9Y3D0)
T3 sequence (Q9Y3D0 1-163): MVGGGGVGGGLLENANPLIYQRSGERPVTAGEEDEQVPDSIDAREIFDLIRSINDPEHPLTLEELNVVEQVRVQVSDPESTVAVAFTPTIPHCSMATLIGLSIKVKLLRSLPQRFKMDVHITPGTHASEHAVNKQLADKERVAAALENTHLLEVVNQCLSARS

[6] = molecular target: cysteines in MDA-MB-231 and Ramos cells (Homo sapiens, UniProt O60610)
cysteines in MDA-MB-231 and Ramos cells (Homo sapiens, UniProt O60610), sequence (O60610 whole entry): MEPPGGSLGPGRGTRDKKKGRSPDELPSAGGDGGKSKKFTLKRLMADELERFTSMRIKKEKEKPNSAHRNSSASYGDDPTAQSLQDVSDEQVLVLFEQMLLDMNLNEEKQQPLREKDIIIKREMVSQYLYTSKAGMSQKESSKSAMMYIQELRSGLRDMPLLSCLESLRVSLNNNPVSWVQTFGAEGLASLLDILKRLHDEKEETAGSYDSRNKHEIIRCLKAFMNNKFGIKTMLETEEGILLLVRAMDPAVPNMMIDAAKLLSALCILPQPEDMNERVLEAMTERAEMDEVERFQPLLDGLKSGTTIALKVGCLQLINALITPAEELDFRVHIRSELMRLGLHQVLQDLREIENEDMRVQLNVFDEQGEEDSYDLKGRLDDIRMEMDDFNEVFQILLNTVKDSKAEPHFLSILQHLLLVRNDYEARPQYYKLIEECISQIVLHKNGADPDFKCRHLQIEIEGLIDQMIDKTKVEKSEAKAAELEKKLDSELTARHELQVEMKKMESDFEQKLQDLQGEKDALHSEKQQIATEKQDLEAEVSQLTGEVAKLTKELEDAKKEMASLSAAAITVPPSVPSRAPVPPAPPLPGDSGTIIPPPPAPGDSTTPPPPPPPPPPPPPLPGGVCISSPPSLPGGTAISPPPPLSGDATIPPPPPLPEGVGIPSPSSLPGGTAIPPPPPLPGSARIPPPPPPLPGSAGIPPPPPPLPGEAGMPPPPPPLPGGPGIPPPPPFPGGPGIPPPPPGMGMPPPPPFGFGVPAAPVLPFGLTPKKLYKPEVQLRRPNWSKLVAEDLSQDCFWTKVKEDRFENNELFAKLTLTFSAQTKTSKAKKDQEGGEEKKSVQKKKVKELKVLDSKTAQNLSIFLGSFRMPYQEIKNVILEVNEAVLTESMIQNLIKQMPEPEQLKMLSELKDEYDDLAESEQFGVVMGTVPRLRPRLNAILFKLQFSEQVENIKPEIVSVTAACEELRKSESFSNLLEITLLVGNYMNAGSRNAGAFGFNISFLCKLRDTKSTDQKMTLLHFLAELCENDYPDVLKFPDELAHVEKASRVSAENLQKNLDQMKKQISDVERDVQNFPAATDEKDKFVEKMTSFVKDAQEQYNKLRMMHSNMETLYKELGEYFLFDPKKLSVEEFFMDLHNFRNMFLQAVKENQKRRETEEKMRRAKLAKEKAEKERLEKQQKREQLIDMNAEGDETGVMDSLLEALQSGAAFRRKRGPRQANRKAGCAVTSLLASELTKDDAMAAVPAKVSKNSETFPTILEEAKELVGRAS

[7] = molecular target: T4, cysteines in MDA-MB-231 and Ramos cells (Homo sapiens, UniProt O95571)
T4 sequence (O95571 8-254): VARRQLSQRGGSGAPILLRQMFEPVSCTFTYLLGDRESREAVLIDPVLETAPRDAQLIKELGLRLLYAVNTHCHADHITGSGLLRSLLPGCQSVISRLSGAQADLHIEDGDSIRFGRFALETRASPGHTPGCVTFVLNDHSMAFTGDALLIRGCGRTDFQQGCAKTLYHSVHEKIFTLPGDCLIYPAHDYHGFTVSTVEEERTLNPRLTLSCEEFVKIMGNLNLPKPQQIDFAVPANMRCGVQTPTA

[8] = molecular target: cysteines in MDA-MB-231 and Ramos cells (Homo sapiens, UniProt Q9BUH6); details: 200 μM, insitu
cysteines in MDA-MB-231 and Ramos cells (Homo sapiens, UniProt Q9BUH6), sequence (Q9BUH6 whole entry): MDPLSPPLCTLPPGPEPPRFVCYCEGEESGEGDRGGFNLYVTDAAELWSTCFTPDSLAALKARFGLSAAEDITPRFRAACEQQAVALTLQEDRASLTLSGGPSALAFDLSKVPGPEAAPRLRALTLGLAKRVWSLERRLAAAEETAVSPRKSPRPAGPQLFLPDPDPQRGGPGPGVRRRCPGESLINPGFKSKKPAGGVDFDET

[9] = molecular target: T5, cysteines in MDA-MB-231 and Ramos cells (Homo sapiens, UniProt Q9NQW6)
T5 sequence (Q9NQW6 1-1124): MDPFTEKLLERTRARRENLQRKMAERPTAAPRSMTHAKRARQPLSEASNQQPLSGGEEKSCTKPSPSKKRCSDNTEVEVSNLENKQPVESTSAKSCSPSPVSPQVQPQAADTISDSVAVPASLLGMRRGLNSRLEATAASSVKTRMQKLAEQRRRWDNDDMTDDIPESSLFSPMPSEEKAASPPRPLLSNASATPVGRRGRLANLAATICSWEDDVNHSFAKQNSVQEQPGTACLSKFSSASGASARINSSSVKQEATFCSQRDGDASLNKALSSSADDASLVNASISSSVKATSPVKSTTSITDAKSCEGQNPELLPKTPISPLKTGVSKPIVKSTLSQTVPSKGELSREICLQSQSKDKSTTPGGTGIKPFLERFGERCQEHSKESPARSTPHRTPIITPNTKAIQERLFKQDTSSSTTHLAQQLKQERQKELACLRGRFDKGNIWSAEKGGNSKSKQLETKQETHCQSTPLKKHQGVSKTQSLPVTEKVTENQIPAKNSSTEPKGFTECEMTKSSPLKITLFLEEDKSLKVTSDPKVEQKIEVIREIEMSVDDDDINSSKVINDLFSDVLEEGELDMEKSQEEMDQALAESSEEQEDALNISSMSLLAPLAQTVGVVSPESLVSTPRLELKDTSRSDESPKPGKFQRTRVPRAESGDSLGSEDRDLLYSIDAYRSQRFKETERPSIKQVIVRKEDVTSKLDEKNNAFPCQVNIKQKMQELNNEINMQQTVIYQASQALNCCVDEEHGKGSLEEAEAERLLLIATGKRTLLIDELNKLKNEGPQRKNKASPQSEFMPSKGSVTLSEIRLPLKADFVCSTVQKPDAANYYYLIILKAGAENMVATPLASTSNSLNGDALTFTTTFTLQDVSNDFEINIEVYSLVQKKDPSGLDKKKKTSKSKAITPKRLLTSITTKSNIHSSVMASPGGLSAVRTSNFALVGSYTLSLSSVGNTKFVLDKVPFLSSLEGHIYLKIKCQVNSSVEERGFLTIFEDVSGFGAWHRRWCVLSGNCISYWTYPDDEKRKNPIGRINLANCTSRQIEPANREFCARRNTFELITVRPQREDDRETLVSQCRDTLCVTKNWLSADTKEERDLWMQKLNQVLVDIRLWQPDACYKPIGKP

cysteines in MDA-MB-231 and Ramos cells (Homo sapiens, UniProt Q8TAQ2), sequence (Q8TAQ2 whole entry): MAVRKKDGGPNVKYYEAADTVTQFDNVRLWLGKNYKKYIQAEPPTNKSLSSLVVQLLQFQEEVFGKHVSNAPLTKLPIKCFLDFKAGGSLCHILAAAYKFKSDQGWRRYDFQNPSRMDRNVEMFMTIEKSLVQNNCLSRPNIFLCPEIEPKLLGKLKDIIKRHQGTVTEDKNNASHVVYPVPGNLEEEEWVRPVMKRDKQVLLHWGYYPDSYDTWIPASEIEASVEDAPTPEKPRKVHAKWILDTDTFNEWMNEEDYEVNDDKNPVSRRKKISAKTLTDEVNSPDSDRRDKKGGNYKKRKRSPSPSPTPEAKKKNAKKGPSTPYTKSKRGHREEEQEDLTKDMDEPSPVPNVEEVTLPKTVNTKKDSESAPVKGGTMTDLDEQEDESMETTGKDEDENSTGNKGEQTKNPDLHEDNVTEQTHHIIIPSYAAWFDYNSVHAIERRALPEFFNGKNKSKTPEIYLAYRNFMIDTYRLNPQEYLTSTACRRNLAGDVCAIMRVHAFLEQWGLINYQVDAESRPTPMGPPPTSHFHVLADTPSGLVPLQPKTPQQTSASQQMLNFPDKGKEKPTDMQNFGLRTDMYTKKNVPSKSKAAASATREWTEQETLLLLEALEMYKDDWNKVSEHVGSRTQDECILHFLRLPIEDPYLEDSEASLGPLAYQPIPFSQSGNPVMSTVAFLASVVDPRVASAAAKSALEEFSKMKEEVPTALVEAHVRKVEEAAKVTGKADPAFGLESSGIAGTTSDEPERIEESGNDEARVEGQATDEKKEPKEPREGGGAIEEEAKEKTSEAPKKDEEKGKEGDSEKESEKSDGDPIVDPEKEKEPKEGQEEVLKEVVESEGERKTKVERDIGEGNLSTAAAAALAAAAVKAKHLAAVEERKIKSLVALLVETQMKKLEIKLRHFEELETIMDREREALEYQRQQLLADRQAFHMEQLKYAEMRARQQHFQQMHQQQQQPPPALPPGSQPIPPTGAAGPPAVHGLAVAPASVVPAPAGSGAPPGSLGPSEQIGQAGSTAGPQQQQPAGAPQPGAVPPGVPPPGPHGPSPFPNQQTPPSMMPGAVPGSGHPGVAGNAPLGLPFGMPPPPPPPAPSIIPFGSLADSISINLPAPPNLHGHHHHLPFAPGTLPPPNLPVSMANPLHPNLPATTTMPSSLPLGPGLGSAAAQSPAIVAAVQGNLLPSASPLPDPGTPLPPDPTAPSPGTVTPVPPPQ

Row | SMILES | isoTOP-ABPP ratio Q8TAQ2_C145 ([1]; 200 μM, insitu, 231) | isoTOP-ABPP ratio Q96AB3_C114 ([2]; 200 μM, insitu, 231) | isoTOP-ABPP ratio Q96RN5_C618 ([3]; 200 μM, insitu, 231) | isoTOP-ABPP ratio Q9ULV4_C420 ([4]; 200 μM, insitu, 231) | isoTOP-ABPP ratio Q9Y3D0_C93 ([5]; 200 μM, insitu, 231) | isoTOP-ABPP ratio O60610_C1227 ([6]; 200 μM, insitu, 231) | isoTOP-ABPP ratio Q9BUH6_C180 [8]; 231 | isoTOP-ABPP ratio Q9NQW6_C712 ([9]; 200 μM, insitu, 231) | also measured
1 | O=C(CCl)Nc1cccc2ncccc12 [compound 51] | 1.2 | 0.8 | 2.1 | 1.1 | 20.0 | – | – | – | –
2 | O=C(CCl)NC(=O)NC12CC3CC(CC(C3)C1)C2 [compound 12] | – | 1.6 | 20.0 | 2.2 | – | 0.8 | 1.4 | 16.7 | isoTOP-ABPP ratio O95571_C170 ([7]; 200 μM, insitu, 231): 6.3
3 | O=C(CCl)N1CCN(CC(=O)N2CCOCC2)CC1 [compound 29] | – | – | – | – | – | – | – | – | isoTOP-ABPP ratio O60610_C1227 ([6]; 200 μM, insitu, ramos): 1.6; isoTOP-ABPP ratio O95571_C170 ([7]; 200 μM, insitu, ramos): 1.5; isoTOP-ABPP ratio Q8TAQ2_C145 ([1]; 200 μM, insitu, ramos): 2.7; isoTOP-ABPP ratio Q96AB3_C114 ([2]; 200 μM, insitu, ramos): 1.1; isoTOP-ABPP ratio Q96RN5_C618 ([3]; 200 μM, insitu, ramos): 1.3; isoTOP-ABPP ratio Q9BUH6_C180 ([8]; ramos): 1.5; isoTOP-ABPP ratio Q9Y3D0_C93 ([5]; 200 μM, insitu, ramos): 1.0
4 | CC(C)CCOCCNC(=O)CCl [compound 27] | 2.1 | 1.0 | 0.8 | 0.8 | 0.7 | 0.5 | – | 1.0 | isoTOP-ABPP ratio O95571_C170 ([7]; 200 μM, insitu, 231): 1.1
5 | O=C(CCl)N1CCC(Cc2ccccc2)CC1 [compound 9] | – | – | – | – | – | – | – | – | isoTOP-ABPP reactivity O60610_C1227 DIAPH1 ([6]; 200 μM, insitu, 231): 1.5; isoTOP-ABPP reactivity O95571_C170 ETHE1 ([7]; 200 μM, insitu, 231): 2.0; isoTOP-ABPP reactivity Q9BUH6_C180 C9orf142 [8]; 231: 2.8; isoTOP-ABPP reactivity Q9NQW6_C712 ANLN ([9]; 200 μM, insitu, 231): 3.1; isoTOP-ABPP reactivity Q9ULV4_C420 CORO1C ([4]; 200 μM, insitu, 231): 2.0
6 | O=C(CCl)NC12CC3CC(CC(C3)C1)C2 [compound 21] | 1.6 | 4.9 | 1.0 | 1.3 | 0.5 | 20.0 | – | – | isoTOP-ABPP ratio O95571_C170 ([7]; 200 μM, insitu, 231): 1.7
7 | COc1ccc2c(c1)CCCN2C(=O)CCl [compound 2] | – | – | – | – | – | – | – | – | isoTOP-ABPP reactivity O60610_C1227 DIAPH1 ([6]; 200 μM, insitu, 231): 2.2; isoTOP-ABPP reactivity O95571_C170 ETHE1 ([7]; 200 μM, insitu, 231): 3.8; isoTOP-ABPP reactivity Q8TAQ2_C145 SMARCC2 ([1]; 200 μM, insitu, 231): 4.6; isoTOP-ABPP reactivity Q96AB3_C114 ISOC2 ([2]; 200 μM, insitu, 231): 1.6; isoTOP-ABPP reactivity O96RN5_C618 MED15 ([3]; 200 μM, insitu, 231): 6.4; isoTOP-ABPP reactivity Q9ULV4_C420 CORO1C ([4]; 200 μM, insitu, 231): 3.0; isoTOP-ABPP reactivity Q9Y3D0_C93 FAM96B ([5]; 200 μM, insitu, 231): 20.0
8 | Cn1cc(S(=O)(=O)N2CCOCC2)cc1C(=O)NC(=O)CCl [compound 11] | – | – | – | – | – | – | – | – | isoTOP-ABPP ratio O60610_C1227 ([6]; 100 μM in situ 231): 0.9; isoTOP-ABPP ratio O95571_C170 ([7]; 100 μM in situ 231): 1.2; isoTOP-ABPP ratio Q8TAQ2_C145 ([1]; 100 μM in situ 231): 7.6; isoTOP-ABPP ratio Q96AB3_C114 ([2]; 100 μM in situ 231): 0.9; isoTOP-ABPP ratio Q96RN5_C618 ([3]; 100 μM in situ 231): 1.0; isoTOP-ABPP ratio Q9NQW6_C712 ([9]; 100 μM in situ 231): 0.9; isoTOP-ABPP ratio Q9ULV4_C420 ([4]; 100 μM in situ 231): 0.9; isoTOP-ABPP ratio Q9Y3D0_C93 ([5]; 100 μM in situ 231): 0.9
9 | COc1ccccc1OCCNC(=O)CCl [compound 28] | 0.9 | 0.8 | 0.7 | 0.7 | 0.8 | – | 1.1 | 0.9 | –
10 | C=CC(=O)Nc1cc(F)c(N2CCN(C(=O)OC(C)(C)C)CC2)c(F)c1 [compound 38] | 1.3 | 1.2 | 1.4 | 1.4 | 2.4 | 0.3 | 1.4 | 1.5 | –
11 | C=CC(=O)N(Cc1cccnc1)c1cc(C(F)(F)F)cc(C(F)(F)F)c1 [compound 31] | 0.8 | 0.7 | 0.9 | 0.8 | – | 0.6 | 0.8 | 0.7 | isoTOP-ABPP ratio O60610_C1227 ([6]; 200 μM, insitu, ramos): 1.2; isoTOP-ABPP ratio Q8TAQ2_C145 ([1]; 200 μM, insitu, ramos): 1.1; isoTOP-ABPP ratio Q9ULV4_C420 ([4]; 200 μM, insitu, ramos): 1.1
12 | COc1cc2c(cc1OC)CN(C(=O)CCl)CC2 [compound 8] | – | – | – | – | – | – | – | – | isoTOP-ABPP reactivity O95571_C170 ETHE1 ([7]; 200 μM, insitu, 231): 6.8; isoTOP-ABPP reactivity Q96AB3_C114 ISOC2 ([2]; 200 μM, insitu, 231): 4.7; isoTOP-ABPP reactivity O96RN5_C618 MED15 ([3]; 200 μM, insitu, 231): 20.0; isoTOP-ABPP reactivity Q9BUH6_C180 C9orf142 [8]; 231: 6.6; isoTOP-ABPP reactivity Q9NQW6_C712 ANLN ([9]; 200 μM, insitu, 231): 14.1; isoTOP-ABPP reactivity Q9ULV4_C420 CORO1C ([4]; 200 μM, insitu, 231): 4.6

From patent US10670605B2, “Cysteine reactive probes and uses thereof” (The Scripps Research Institute, priority 2015, dated 2020)
